Results taken from the NIST ThermoML archive (doi:10.1021/acs.jced.9b00607).
± gives the expanded uncertainty stated by the source.

Key:
[1] = 102 kPa, Liquid; for viscosity: Falling or rolling sphere viscometry; for mass density: Vibrating tube method
[2] = wn = mass fraction of the nth substance listed; conditions: 102 kPa, Liquid, w2 = 0; for viscosity: Falling or rolling sphere viscometry; for mass density: Vibrating tube method

| SMILES | viscosity ([1]; 283.15 K) [mPa·s] | mass density ([1]; 283.15 K) [kg/m3] | viscosity ([1]; 298.15 K) [mPa·s] | viscosity ([1]; 313.15 K) [mPa·s] | mass density ([1]; 313.15 K) [kg/m3] | viscosity ([1]; 323.15 K) [mPa·s] | mass density ([1]; 323.15 K) [kg/m3] | viscosity ([1]; 333.15 K) [mPa·s] | mass density ([1]; 333.15 K) [kg/m3] | viscosity ([1]; 343.15 K) [mPa·s] | mass density ([1]; 343.15 K) [kg/m3] | viscosity ([1]; 353.15 K) [mPa·s] | mass density ([1]; 353.15 K) [kg/m3] | mass density ([1]; 298.15 K) [kg/m3] | further results |
| --- | --- | --- | --- | --- | --- | --- | --- | --- | --- | --- | --- | --- | --- | --- | --- |
| OCCO [1,2-ethanediol] | 34.07 ± 4.1 | 1120 ± 0.2 | 17.27 ± 1.1 | 9.69 ± 1.1 | 1099.1 ± 0.3 | 6.81 ± 0.36 | 1091.6 ± 0.1 | 5.28 ± 0.47 | 1085 ± 0.1 | 4.06 ± 0.46 | 1077.6 ± 0.1 | 3.21 ± 0.31 | 1070.1 ± 0.1 |  |  |
| O [water] | 1.32 ± 0.01 | 999.9 ± 0.1 | 0.91 ± 0.01 | 0.67 ± 0.01 | 992.3 ± 0.1 | 0.57 ± 0.01 | 988.3 ± 0.1 |  | 983.5 ± 0.1 |  | 978.1 ± 0.1 |  | 972.3 ± 0.1 | 997.2 ± 0.1 |  |
| CN(CCO)CCO [N-methyldiethanolamine] | 198.15 ± 9.4 | 1048 ± 0.3 | 74.87 ± 1.5 | 35.05 ± 1.1 | 1025.3 ± 0.3 | 21.96 ± 0.43 | 1017.7 ± 0.2 | 14.83 ± 0.49 | 1010 ± 0.2 | 10.29 ± 0.54 | 1002.2 ± 0.2 | 7.4 ± 0.32 | 994.5 ± 0.2 | 1036.8 ± 0.3 |  |
| OCCO [1,2-ethanediol] + CN(CCO)CCO |  |  |  |  |  |  |  |  |  |  |  |  |  |  | viscosity ([2]; 283.15 K): 34.07 ± 4.1 mPa·s; mass density ([2]; 283.15 K): 1120 ± 0.2 kg/m3; viscosity ([2]; 298.15 K): 17.27 ± 1.1 mPa·s; viscosity ([2]; 313.15 K): 9.69 ± 1.1 mPa·s; mass density ([2]; 313.15 K): 1099.1 ± 0.3 kg/m3; viscosity ([2]; 323.15 K): 6.81 ± 0.36 mPa·s; mass density ([2]; 323.15 K): 1091.6 ± 0.1 kg/m3; viscosity ([2]; 333.15 K): 5.28 ± 0.47 mPa·s; mass density ([2]; 333.15 K): 1085 ± 0.1 kg/m3; viscosity ([2]; 343.15 K): 4.06 ± 0.46 mPa·s; mass density ([2]; 343.15 K): 1077.6 ± 0.1 kg/m3; viscosity ([2]; 353.15 K): 3.21 ± 0.31 mPa·s; mass density ([2]; 353.15 K): 1070.1 ± 0.1 kg/m3 |
